Experimental data from publication PMC9266914, “Broad Spectrum Functional Activity of Structurally Related Monoanionic Au(III) Bis(Dithiolene) Complexes” (International Journal of Molecular Sciences, 2022).
Marks after values point to notes of the source that are not given here.

Test: Cyclic voltammetry
Type: physicochemical
Settings: for E1/2 −1/0, first value of cell (anodic peak) / E1/2 −1/0, second value of cell (cathodic peak) / E −2/−1 (reduction of monoanion into dianion) / Epa2 0/+1 / Epc2 0/+1: CH2Cl2, NBu4PF6, Pt, 100 mV.s^−1; for potential difference between the second and the first oxidation potentials: CH2Cl2, NBu4PF6
Source text: The redox properties of the various gold(III) bis(dithiolene) and bis(diselenolene) complexes were investigated by cyclic voltammetry using the same conditions, dichloromethane solutions and NBu4PF6 as supporting electrolyte. Under these conditions, the nature of the counter-ion, Ph4P^+ or Et4N^+, had no influence on the redox properties observed, due to ion exchange with the Bu4N^+ of the supporting electrolyte. Thus, only the result of one monoanion is included in Table 1, even if the two salts were analyzed. For all the investigated monoanionic bis(dithiolene) complexes, three redox processes are observed on the cyclic voltammograms. On the anodic scan, the two oxidation waves correspond to the oxidation of the monoanionic species into the neutral and to the monocationic complex. Most of these complexes had the tendency to deposit on the electrode once oxidized and frequently a strong desorption peak was observed on the reversible scan. This phenomenon occurs essentially for the complex with an exocyclic sulfur atom, [AuSR(=S)]^−1. On the cathodic scan, an irreversible process associated with the reduction in the monoanion into the dianion occurs (Scheme 2). […] The presence of oxygen instead of sulfur makes the oxidation of the monoanionic into the neutral species easier. On the other hand, the presence of electron-withdrawing substituents such as =C(CN)2 induces an anodic shift of the oxidation potentials by 300 mV, compared with the =O derivative, leading to a monoanion which is more difficult to oxidize than the other complexes of the series. […] Indeed, the potential difference between the second and the first oxidation potentials amounts to 470 mV and 410 mV for the =O and the =C(CN)2 derivatives, respectively, while for the =S analogues this value is smaller (170 mV). […] For comparison, we also investigated the redox behavior of Auranofin using the same experimental conditions in CH2Cl2 in the presence of NBu4PF6 as a supporting electrolyte. Using these conditions, upon anodic scan only one irreversible oxidation process is observed at 1.42 V vs. SCE. Therefore, all these monoanionic gold bis(dithiolene) and bis(diselenolene) complexes are easier to oxidize than Auranofin.
All reagents and materials from commercial sources were used without further purification. NMR spectra were recorded at room temperature using CDCl3 unless otherwise stated (Figures S7–S15). Chemical shifts are reported in ppm and ^1H NMR spectra were referenced to residual CHCl3 (7.26 ppm) and ^13C NMR spectra were referenced to CHCl3 (77.2 ppm). Mass spectra were recorded with an Agilent 6510 instrument for organics compounds and with a Thermo-Fisher Q-Exactive instrument for complexes by the Center Régional de Mesures Physiques de l’Ouest, Rennes. Cyclic voltammograms (CV)s were carried out on a 10^−3 M solution of complex in CH2Cl2-[NBu4] [PF6] 0.1 M. CVs were recorded on a Biologic SP-50 instruments at 0.1 Vs^−1 on a platinum disk electrode. Potentials were measured versus KCl Saturated Calomel Electrode (SCE). Column chromatography was performed using silica gel Merck 60 (70–260 mesh). The solvents were purified and dried by standard methods. The proligand 2-SEt(=C(CN2)), [72] and complexes [N][AuSMe(=S)], [73] [N][AuSEt(=S)], [74] [P][AuSEt(=O)], [75] [N][AuSeEt(=S)] [75] and [P][AuSPr(=S)] [76] were synthesized according to the previously reported procedure.

| Structure (SMILES) | E1/2 −1/0, first value of cell (anodic peak) | E1/2 −1/0, second value of cell (cathodic peak) | E −2/−1 (reduction of monoanion into dianion) | Epa2 0/+1 | Epc2 0/+1 | potential difference between the second and the first oxidation potentials |
| --- | --- | --- | --- | --- | --- | --- |
| CCCCn1c2c(sc1=S)[S][Au-]1([S]c3sc(=S)n(CCCC)c3[S]1)[S]2 [[AuSBu(=S)]^−1] | 0.55 V vs. SCE | 0.50 V vs. SCE | −0.88 ** V vs. SCE | 0.75 V vs. SCE | 0.66 V vs. SCE | – |
| Cn1c2c(sc1=S)[S][Au-]1([S]c3sc(=S)n(C)c3[S]1)[S]2 [[AuSMe(=S)]^−1] | 0.51 V vs. SCE | 0.44 V vs. SCE | −0.85 V vs. SCE | 0.73 V vs. SCE | 0.56 V vs. SCE | – |
| CCn1c2c(sc1=O)[S][Au-]1([S]c3sc(=O)n(CC)c3[S]1)[S]2 [[AuSEt(=O)]^−1] | 0.42 V vs. SCE | 0.36 V vs. SCE | −1.05 ** V vs. SCE | 0.89 V vs. SCE | 0.83 V vs. SCE | 470 mV |
| CC(C)n1c2c(sc1=S)[Se][Au-]1([Se]c3sc(=S)n(C(C)C)c3[Se]1)[Se]2 [[AuSeiPr(=S)]^−1] | 0.62 V vs. SCE | 0.57 V vs. SCE | −0.94 V vs. SCE | 0.75/− V vs. SCE | – | – |
| CCn1c2c(sc1=[Se])[S][Au-]1([S]c3sc(=[Se])n(CC)c3[S]1)[S]2 [[AuSEt(=Se)]^−1] | 0.40/− ** V vs. SCE | – | −0.80 ** V vs. SCE | – | – | – |
| CCn1c2c(sc1=[Se])[Se][Au-]1([Se]c3sc(=[Se])n(CC)c3[Se]1)[Se]2 [[AuSeEt(=Se)]^−1] | 0.43/− ** V vs. SCE | – | −0.84 ** V vs. SCE | – | – | – |
| CCCn1c2c(sc1=S)[Se][Au-]1([Se]c3sc(=S)n(CCC)c3[Se]1)[Se]2 [[AuSePr(=S)]^−1] | 0.54/− ** V vs. SCE | – | −0.90 V vs. SCE | 0.95/− V vs. SCE | – | – |
| CCn1c2c(sc1=S)[S][Au-]1([S]c3sc(=S)n(CC)c3[S]1)[S]2 [[AuSEt(=S)]^−1] | 0.55 V vs. SCE | 0.49 V vs. SCE | −0.90 V vs. SCE | 0.71 V vs. SCE | 0.61 V vs. SCE | – |
| CCn1c2c(sc1=S)[Se][Au-]1([Se]c3sc(=S)n(CC)c3[Se]1)[Se]2 [[AuSeEt(=S)]^−1] | 0.52/− ** V vs. SCE | – | −0.89 ** V vs. SCE | – | – | – |
| CCCn1c2c(sc1=[Se])[S][Au-]1([S]c3sc(=[Se])n(CCC)c3[S]1)[S]2 [[AuSPr(=Se)]^−1] | 0.45/− ** V vs. SCE | – | −0.84 ** V vs. SCE | – | – | – |
| CCCn1c2c(sc1=S)[S][Au-]1([S]c3sc(=S)n(CCC)c3[S]1)[S]2 [[AuSPr(=S)]^−1] | 0.56 V vs. SCE | 0.53 V vs. SCE | −0.85 ** V vs. SCE | 0.73 V vs. SCE | 0.64 V vs. SCE | – |
| CCN1C(=C(C#N)C#N)SC2=C1[S][Au-]1([S]2)[S]C2=C([S]1)N(CC)C(=C(C#N)C#N)S2 [[AuSEt(=C(CN)2)]^−1] | 0.71 V vs. SCE | 0.66 V vs. SCE | – | 1.13 V vs. SCE | 1.06 V vs. SCE | 410 mV |
